In patent US20120316203A1, “Compositions and Methods for Inhibition of Cancers” (THE OHIO STATE UNIVERSITY RESEARCH FOUNDATION, priority 2009, published 2012):

What was measured:
[1] = Body weight and diet consumption of tumor-bearing animals; type: in vivo; conditions: 25, 50, and 100 ppm in feed, 5 weeks
Protocol: (§1) Cultured A2780 cancer cells (2×10^6 cells in […] of PBS) were s.c. injected into the back of 6-week-old BALB/c nude mice from the National Cancer Institute. Five to 7 days later, when the tumors reached 3 to 5 mm in diameter, the mice were divided (n=9/group) in a manner to equalize the mean tumor diameter among the groups. The control group was given a normal diet (no treatment), whereas the experimental groups were treated using the DAP compounds mixed with the animal feed (Harlan Teklad) at three different levels (25, 50, and 100 ppm). The doses were chosen based on an initial dose-response study optimized to produce an observable effect on tumor growth. The size of the tumor was measured twice per week using a digital Vernier caliper. The tumor volume was determined from the orthogonal dimensions (d1, d2, d3) using the formula (d1×d2×d3)×π/6. Thirty five days after the beginning of HO-3867 treatment, the mice were sacrificed and the tumors were resected. The tumor tissues were then subjected to immunoblot analysis.
The mice were treated with HO-3867 and the tumor size as measured twice weekly for 5 weeks. […] We also measured the body weight and diet consumption of tumor-bearing animals.

[2] = system: p53, p21, p27, cdk2, and cyclin A in A2780 cells; test: Immunoblot of cell cycle regulatory proteins; type: cell-based, human; conditions: Western blot
Protocol: Cells in RPMI 1640 were treated with DMSO (control) or HO-3867 (10 μmol/L) for 24 hours. Equal volumes of DMSO (0.1% v/v) were present in each treatment. Following treatment, the cell lysates were prepared in non-denaturing lysis buffer containing 10 mmol/L Tris-HCl (pH 7.4), 150 mmol/L NaCl, 1% Triton X-100, 1 mmol/L EDTA, 1 mmol/L EGTA, 0.3 mmol/L phenylmethyl-sulfonyl fluoride, 0.2 mmol/L sodium orthovanadate, 0.5% NP40, 1 μg/mL aprotinin, and 1 μg/mL leupetin. The lysates were centrifuged at 10,000×g for 20 minutes at 4° C. and the supernatant was separated. The protein concentration in the lysates was determined using a Pierce detergent-compatible protein assay kit. For Western blotting, 25 to 50 μg of protein lysate per sample were denatured in 2×SDS-PAGE sample buffer and subjected to SDS-PAGE on a 10% tris-glycine gel. The separated proteins were transferred to a polyvinylidene fluoride membrane and were blocked with 5% nonfat milk powder (w/v) in TBST (10 mmol/L Tris, 10 mmol/L NaCl, 0.1% Tween 20) for 1 hour at room temperature or overnight at 4° C. […] The bound antibodies were detected with horseradish peroxidase-labeled sheep anti-mouse IgG or horseradish peroxidase-labeled donkey anti-rabbit IgG using an enhanced chemiluminescence detection system (ECL Advanced kit). Protein expressions were determined using the Image Gauge v. […]

[3] = system: STAT3 and apoptotic markers in HSMC; test: Western blot of STAT3 signaling and apoptotic markers in HSMC; type: cell-based, human; conditions: 10 μM, 24 h
Protocol: Cells were grown in RPMI 1640 medium and treated with DMSO (control) or HO-3867 ([…]). Equal volumes of DMSO (0.1% v/v) were present in both groups. After treatment, cell lysates were prepared in nondenaturing lysis buffer (10 mM Tris-HCl (pH 7.4), 150 mM NaCl, 1% Triton X-100, 1 mM EDTA, 1 mM EGTA, 0.3 mM phenylmethylsulfonyl fluoride, 0.2-mM sodium orthovanadate, 0.5% NP-40, 1 lag/ml aprotinin, and 1 lag/ml leupeptin). Cell lysates were centrifuged at 10,000 RPM for 20 min at 4° C., and the supernatant was separated. The protein concentration in the lysates was determined using a Pierce detergent-compatible protein assay kit. For Western blotting, 25 to 50 lag of protein lysate per sample was denatured in 2× sample buffer and subjected to SDS-PAGE on a 10 or 12% Tris-glycine gel. The separated proteins were transferred to a PVDF membrane and then the membrane was blocked with 5% nonfat milk powder (w/v) in 10 mM Tris, 100 mM NaCl, 0.1% Tween 20 for 1 h at room temperature or overnight at 4° C. The membranes were incubated with the primary antibodies described above. The bound antibodies were detected with horseradish peroxidase (HRP)-labeled sheep anti-mouse IgG or HRP-labeled donkey anti-rabbit IgG (Amersham) using an enhanced chemiluminescence detection system (ECL Advanced Kit). Protein expression was determined using Image Gauge version 3.45.

[4] = biological target: T1, FAS in A2780 and SKOV3 cells (Homo sapiens, UniProt P49327); test: Fatty acid synthase activity assay; type: cell-based; conditions: 10 μM, 12 or 24 h, both cell lines
T1 construct: endogenous in cells; host or cells: A2780 and SKOV3 human ovarian cancer cells
T1 sequence (P49327 whole entry): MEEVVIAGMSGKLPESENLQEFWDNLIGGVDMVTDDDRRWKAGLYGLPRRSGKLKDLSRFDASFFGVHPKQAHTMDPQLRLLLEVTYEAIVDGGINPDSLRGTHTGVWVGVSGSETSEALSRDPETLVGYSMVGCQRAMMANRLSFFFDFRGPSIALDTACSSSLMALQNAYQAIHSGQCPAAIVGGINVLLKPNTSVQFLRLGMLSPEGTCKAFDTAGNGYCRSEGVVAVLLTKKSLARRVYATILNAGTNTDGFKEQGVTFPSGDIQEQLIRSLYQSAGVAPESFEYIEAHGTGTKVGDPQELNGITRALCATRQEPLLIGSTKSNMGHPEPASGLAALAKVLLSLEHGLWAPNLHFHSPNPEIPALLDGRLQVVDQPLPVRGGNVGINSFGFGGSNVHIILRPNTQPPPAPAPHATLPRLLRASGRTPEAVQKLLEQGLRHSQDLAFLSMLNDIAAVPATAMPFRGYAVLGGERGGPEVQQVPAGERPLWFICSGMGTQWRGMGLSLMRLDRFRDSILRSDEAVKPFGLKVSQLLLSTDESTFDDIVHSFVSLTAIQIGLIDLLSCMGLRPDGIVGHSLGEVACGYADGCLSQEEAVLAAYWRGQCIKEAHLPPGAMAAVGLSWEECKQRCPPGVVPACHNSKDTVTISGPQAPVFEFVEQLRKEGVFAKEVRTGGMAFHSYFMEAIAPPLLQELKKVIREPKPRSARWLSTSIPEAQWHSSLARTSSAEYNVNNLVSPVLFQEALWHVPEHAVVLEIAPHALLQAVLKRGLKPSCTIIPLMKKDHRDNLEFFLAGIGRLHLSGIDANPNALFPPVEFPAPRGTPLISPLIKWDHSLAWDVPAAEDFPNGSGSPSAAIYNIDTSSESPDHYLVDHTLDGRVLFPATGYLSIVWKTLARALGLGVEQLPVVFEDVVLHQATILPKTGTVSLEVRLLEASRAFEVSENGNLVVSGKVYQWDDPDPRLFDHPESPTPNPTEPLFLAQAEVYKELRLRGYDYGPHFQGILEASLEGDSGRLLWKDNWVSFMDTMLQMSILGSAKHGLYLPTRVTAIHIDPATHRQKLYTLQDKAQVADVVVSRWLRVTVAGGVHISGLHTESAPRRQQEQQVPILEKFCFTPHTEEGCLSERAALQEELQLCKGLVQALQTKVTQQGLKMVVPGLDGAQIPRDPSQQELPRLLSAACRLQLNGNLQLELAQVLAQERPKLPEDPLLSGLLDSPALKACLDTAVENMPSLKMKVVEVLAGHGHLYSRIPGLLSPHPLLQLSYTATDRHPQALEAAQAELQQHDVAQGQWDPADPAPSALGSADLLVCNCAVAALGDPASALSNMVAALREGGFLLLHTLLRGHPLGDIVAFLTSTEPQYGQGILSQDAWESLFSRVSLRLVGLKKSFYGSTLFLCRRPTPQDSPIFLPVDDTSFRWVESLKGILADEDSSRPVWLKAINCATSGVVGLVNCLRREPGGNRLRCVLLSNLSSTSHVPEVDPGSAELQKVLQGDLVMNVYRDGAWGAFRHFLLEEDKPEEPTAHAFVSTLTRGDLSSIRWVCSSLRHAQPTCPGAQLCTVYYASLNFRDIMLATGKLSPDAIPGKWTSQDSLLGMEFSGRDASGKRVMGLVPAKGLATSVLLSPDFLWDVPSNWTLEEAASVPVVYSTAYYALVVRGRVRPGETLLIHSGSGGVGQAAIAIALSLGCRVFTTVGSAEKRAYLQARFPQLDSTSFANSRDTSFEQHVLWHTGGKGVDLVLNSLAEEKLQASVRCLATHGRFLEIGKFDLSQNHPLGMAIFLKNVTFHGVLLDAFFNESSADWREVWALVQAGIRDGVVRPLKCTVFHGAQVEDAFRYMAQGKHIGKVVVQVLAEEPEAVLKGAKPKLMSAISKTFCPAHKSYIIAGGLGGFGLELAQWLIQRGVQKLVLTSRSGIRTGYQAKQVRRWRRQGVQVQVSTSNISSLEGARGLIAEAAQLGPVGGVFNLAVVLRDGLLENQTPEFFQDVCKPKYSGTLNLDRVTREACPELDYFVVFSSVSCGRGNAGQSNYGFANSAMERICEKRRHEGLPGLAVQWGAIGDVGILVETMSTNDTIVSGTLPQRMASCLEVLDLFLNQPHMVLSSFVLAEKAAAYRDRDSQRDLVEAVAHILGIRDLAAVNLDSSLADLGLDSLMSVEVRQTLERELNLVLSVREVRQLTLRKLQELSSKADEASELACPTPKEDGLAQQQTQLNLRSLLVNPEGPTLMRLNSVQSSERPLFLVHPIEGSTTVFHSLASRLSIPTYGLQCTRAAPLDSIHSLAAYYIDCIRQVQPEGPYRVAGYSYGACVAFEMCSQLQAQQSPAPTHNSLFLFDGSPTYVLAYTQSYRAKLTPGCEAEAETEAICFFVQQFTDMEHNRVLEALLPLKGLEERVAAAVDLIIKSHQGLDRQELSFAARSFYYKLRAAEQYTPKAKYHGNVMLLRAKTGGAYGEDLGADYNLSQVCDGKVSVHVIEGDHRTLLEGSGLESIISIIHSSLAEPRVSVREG
Protocol: The FAS activity was determined spectrophotometrically at 37° C. in particle-free supernatants by measuring the decrease of absorption at 340 nm due to oxidation of NADPH.

[5] = system: A2780 cells; test: Cell-cycle analysis by flow cytometry; type: cell-based, human; conditions: 6, 12, or 24 hours, versus nontreated control
Protocol: Cells were treated with HO-3867 (10 μmol/L) for 24 hours, trypsinized, washed in PBS, and fixed in an ice-cold 75% ethanol/PBS solution. The DNA was labeled with propidium iodide. Cells were sorted by flow cytometry and cell cycle profiles were determined using ModFit LT software (Becton Dickinson).
We next examined whether the growth inhibition of A2780 cells by HO-3867 was caused by cell cycle arrest. Cells were treated with HO-3867 for 6, 12, or 24 hours; fixed; and cell cycle populations were determined by flow cytometry.

[6] = system: caspase-8, caspase-7, cleaved caspase-3, PARP, Fas/CD95, Fas-L, TNF-R1 in A2780 cells; test: Immunoblot of apoptotic marker proteins and death receptors; type: cell-based, human
Protocol: Cells in RPMI 1640 were treated with DMSO (control) or HO-3867 (10 μmol/L) for 24 hours. Equal volumes of DMSO (0.1% v/v) were present in each treatment. Following treatment, the cell lysates were prepared in non-denaturing lysis buffer containing 10 mmol/L Tris-HCl (pH 7.4), 150 mmol/L NaCl, 1% Triton X-100, 1 mmol/L EDTA, 1 mmol/L EGTA, 0.3 mmol/L phenylmethyl-sulfonyl fluoride, 0.2 mmol/L sodium orthovanadate, 0.5% NP40, 1 μg/mL aprotinin, and 1 μg/mL leupetin. The lysates were centrifuged at 10,000×g for 20 minutes at 4° C. and the supernatant was separated. The protein concentration in the lysates was determined using a Pierce detergent-compatible protein assay kit. For Western blotting, 25 to 50 μg of protein lysate per sample were denatured in 2×SDS-PAGE sample buffer and subjected to SDS-PAGE on a 10% tris-glycine gel. The separated proteins were transferred to a polyvinylidene fluoride membrane and were blocked with 5% nonfat milk powder (w/v) in TBST (10 mmol/L Tris, 10 mmol/L NaCl, 0.1% Tween 20) for 1 hour at room temperature or overnight at 4° C. The membranes were then incubated with the primary antibodies. The bound antibodies were detected with horseradish peroxidase-labeled sheep anti-mouse IgG or horseradish peroxidase-labeled donkey anti-rabbit IgG using an enhanced chemiluminescence detection system (ECL Advanced kit). Protein expressions were determined using the Image Gauge v. 3.45 software.

[7] = system: A2780 and other cancer cells; test: Metabolic conversion to nitroxide in cancer cells (EPR); type: in vitro ADME, human
Text: The N-hydroxypyrroline (—NOH) moiety is capable of undergoing a reversible one-electron oxidation to its nitroxide form (—NO; FIG. 9A), which is paramagnetic and detectable by EPR spectroscopy.

[8] = system: A2780 human ovarian tumor xenograft; test: Ovarian cancer tumor xenografts in mice, tumor growth; type: in vivo, BALB/c nude mice; conditions: 25, 50, and 100 ppm in feed, 5 weeks; dose-dependent, 50 and 100 ppm more effective
Protocol: as §1

CC1(C)C=C(CN2C/C(=C\c3ccc(F)cc3)C(=O)/C(=C/c3ccc(F)cc3)C2)C(C)(C)N1O [HO-3867, 1-[(1-oxyl-2,2,5,5-tetramethyl-2,5-dihydro-1H-pyrrol-3-yl)methyl]-(3E,5E)-3,5-bis(4-fluorobenzylidene)piperidin-4-one]
gross signs of toxicity (body weight, diet consumption) [1]: did not show any gross signs of toxicity | cdk2 and cyclin-A levels [2]: significantly decreased | levels of p53 and p21 [2]: significantly upregulated | activation of STAT3 or apoptotic markers in HSMC [3]: did not induce any significant change | FAS activity [4]: significantly reduced | percentages of the cell population in the G2-M and sub-G1 phases [5]: significantly higher | level of activated caspases (caspase-8, caspase-7, cleaved caspase-3) and PARP ([6]; 24 hours, versus nontreated cells): significant increase | Fas-L level ([6]; data not shown): no significant change | expression level of TNF-R1 ([6]; data not shown): unchanged | Fas/CD95 expression ([6]; versus nontreated group): clear increase | EPR signal intensity of the nitroxide metabolite in A2780 cells compared to PBS [7]: fivefold increase | EPR spectrum (nitroxide signal) after incubation with A2780 cells ([7]; 37° C., EPR): characteristic triplet feature | tumor volume [8]: significant reduction
